These results are taken from publication PMC6017874, “Synthesis of New C- and N-β-D-Glucopyranosyl Derivatives of Imidazole, 1,2,3-Triazole and Tetrazole, and Their Evaluation as Inhibitors of Glycogen Phosphorylase” (Molecules : A Journal of Synthetic Chemistry and Natural …, 2018).

Where two headings read alike, the source gives them in different places.

In data set [1] the target is T1, rabbit muscle glycogen phosphorylase b (RMGPb) (Oryctolagus cuniculus, UniProt P00489).
T1 sequence (P00489 1-843): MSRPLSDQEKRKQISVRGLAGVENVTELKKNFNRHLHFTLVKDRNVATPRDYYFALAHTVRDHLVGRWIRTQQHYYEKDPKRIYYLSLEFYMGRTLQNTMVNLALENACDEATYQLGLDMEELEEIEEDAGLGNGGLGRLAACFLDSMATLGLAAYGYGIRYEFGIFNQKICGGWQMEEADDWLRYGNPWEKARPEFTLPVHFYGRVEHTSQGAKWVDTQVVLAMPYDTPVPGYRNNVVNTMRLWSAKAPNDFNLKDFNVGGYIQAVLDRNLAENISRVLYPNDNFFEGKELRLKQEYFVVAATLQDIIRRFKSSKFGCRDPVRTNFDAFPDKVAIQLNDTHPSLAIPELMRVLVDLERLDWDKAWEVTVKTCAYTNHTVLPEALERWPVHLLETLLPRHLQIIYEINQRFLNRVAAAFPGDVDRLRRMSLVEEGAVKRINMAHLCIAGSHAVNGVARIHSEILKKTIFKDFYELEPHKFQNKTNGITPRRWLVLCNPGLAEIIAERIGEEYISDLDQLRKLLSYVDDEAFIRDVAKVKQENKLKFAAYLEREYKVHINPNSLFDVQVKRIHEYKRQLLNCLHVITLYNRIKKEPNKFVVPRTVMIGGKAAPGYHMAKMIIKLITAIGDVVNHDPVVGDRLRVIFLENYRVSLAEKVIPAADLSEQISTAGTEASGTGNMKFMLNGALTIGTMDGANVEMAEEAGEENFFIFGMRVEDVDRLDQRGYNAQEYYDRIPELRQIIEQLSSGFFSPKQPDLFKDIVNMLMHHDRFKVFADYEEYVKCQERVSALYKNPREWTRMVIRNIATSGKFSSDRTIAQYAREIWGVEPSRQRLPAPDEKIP
Description: Inhibition of rabbit muscle glycogen phosphorylase b (enzyme kinetic assay). In kind it is biochemical. Further details: key to Inhibition: N.I.: no inhibition at 625 μM concentration. The note with it: for Inhibition: N.I. = no inhibition at 625 μM concentration; for inhibition of RMGPb (in words): investigated concentration range, max 625 μM. As for the experimental part: The new compounds were assayed against rabbit muscle glycogen phosphorylase b enzyme (RMGPb) as described earlier and the results are collected in Table 5. The inefficiency of C-glucopyranosyl 1,2,3-triazoles 5 (entries 4–6) as compared to the micromolar inhibition of the N-glucopyranosyl counterparts II in Table 2 came as a surprise, since the size of the heterocycle and the position of the H-bond donor and acceptor sites of the ring must not have been altered by the interchange of the substituents. A comparison of the inhibitory efficiency of N-benzoyl-β-D-gluco-pyranosylamine Ib (entry 1) with its “reversed” counterpart N-phenyl-2,6-anhydro-D-glycero-D-gulo-heptonamide 20 (shown in entry 3) results in a ratio of 38–67 (~53 as an average).

The target of data set [2] is T1, rabbit muscle glycogen phosphorylase b (RMGPb). The note with it: cited from earlier work.

For `OC[C@H]1O[C@@H](c2cn(-c3ccccc3)nn2)[C@H](O)[C@@H](O)[C@@H]1O` [5a, 1-Phenyl-4-(β-D-glucopyranosyl)-1H-1,2,3-triazole], in data set [1] (RMGPb), the Inhibition entry is recorded as “N.I”. Also, in data set [1] (RMGPb, inhibition constants of IIb multiplied by the average factor ~53, read-out: predicted inhibition constant), the Ki was 7900 to 8500 µM.

For orientation: melting point means the temperature, or range, at which the solid turns liquid. With `OC[C@H]1O[C@@H](c2cn(-c3ccc4ccccc4c3)nn2)[C@H](O)[C@@H](O)[C@@H]1O` [5b, 1-(Naphthalen-2-yl)-4-(β-D-glucopyranosyl)-1H-1,2,3-triazole], the melting point is 224 to 225 °C. The Inhibition result in data set [1] (RMGPb) is listed as “N.I”.

Consider `OC[C@H]1O[C@@H](c2cn(-c3cccc4ccccc34)nn2)[C@H](O)[C@@H](O)[C@@H]1O` [5c, 1-(Naphthalen-1-yl)-4-(β-D-glucopyranosyl)-1H-1,2,3-triazole], for which, in data set [1] (RMGPb), the Inhibition entry is listed as “N.I”.

As for `OC[C@H]1O[C@@H](c2nnn(-c3ccccc3)n2)[C@H](O)[C@@H](O)[C@@H]1O` [13a, 2-Phenyl-5-(β-D-glucopyranosyl)-2H-tetrazole], the Inhibition result in data set [1] (RMGPb) was “N.I”.

Turning to `Cn1nnc([C@@H]2O[C@H](CO)[C@@H](O)[C@H](O)[C@H]2O)n1` [13e, 2-Methyl-5-(β-D-glucopyranosyl)-2H-tetrazole], the Inhibition entry in data set [1] (RMGPb) was “N.I”.

Consider `Cn1nnnc1[C@@H]1O[C@H](CO)[C@@H](O)[C@H](O)[C@H]1O` [14e, 1-Methyl-5-(β-D-glucopyranosyl)-1H-tetrazole], for which the Inhibition entry in data set [1] (RMGPb) is “N.I”.

A word on the IC50: it is the concentration that inhibits the measured activity by half. On to `OC[C@H]1O[C@@H](n2nnc(-c3ccccc3)n2)[C@H](O)[C@@H](O)[C@@H]1O` [18a, 5-Phenyl-2-(β-D-glucopyranosyl)-2H-tetrazole], for which inhibition in data set [1] (RMGPb) was half-maximal at 600 µM (IC50). In addition, the Ki in data set [1] (RMGPb, calculated from IC50 by the Cheng-Prusoff equation, read-out: calculated Ki) is 327 µM. Besides, the “inhibition of RMGPb (in words)” value in data set [1] was “very weak inhibition”.

For the molecule `Cc1nnn([C@@H]2O[C@H](CO)[C@@H](O)[C@H](O)[C@H]2O)n1` [18e, 5-Methyl-2-(β-D-glucopyranosyl)-2H-tetrazole], in data set [1] (RMGPb), the Inhibition result is on record as “N.I”.

On to `OC[C@H]1O[C@@H](n2nnnc2-c2ccccc2)[C@H](O)[C@@H](O)[C@@H]1O` [19a, 5-Phenyl-1-(β-D-glucopyranosyl)-1H-tetrazole], for which the Inhibition entry in data set [1] (RMGPb) is “N.I”.

On to `Cc1nnc([C@@H]2O[C@H](CO)[C@@H](O)[C@H](O)[C@H]2O)o1` [IIIa], for which, in data set [2], the Ki is 212 µM.

As for `OC[C@H]1O[C@@H](c2nnc(-c3ccccc3)o2)[C@H](O)[C@@H](O)[C@@H]1O` [IIIb], the “inhibition at 625 μM” value in data set [2] (RMGPb) was 10% at 625 μM [37].

With `OC[C@H]1O[C@@H](c2nnc(-c3ccc4ccccc4c3)o2)[C@H](O)[C@@H](O)[C@@H]1O` [IIIc], in data set [2] (RMGPb), the “inhibition at 625 μM” value is 10% at 625 μM [37].

On to `Cc1nc([C@@H]2O[C@H](CO)[C@@H](O)[C@H](O)[C@H]2O)no1` [IVa], for which the “inhibition at 625 μM (in words)” value in data set [2] (RMGPb) is “No inh. at 625 μM [38]”.

With `OC[C@H]1O[C@@H](c2noc(-c3ccccc3)n2)[C@H](O)[C@@H](O)[C@@H]1O` [IVb], the “inhibition at 625 μM” value in data set [2] (RMGPb) was 10% at 625 μM [38].

Turning to `OC[C@H]1OC(c2nnn[nH]2)[C@H](O)[C@@H](O)[C@@H]1O` (some centres unmarked) [VIII, 5-Glucosyltetrazole], the “inhibition at 625 μM (in words)” value in data set [2] (RMGPb) is “No inh. at 625 μM [35]”. Moreover, the “inhibition of RMGPb (in words)” value in data set [2] was “inactive”.

`OC[C@H]1O[C@@H](n2cnc(-c3ccccc3)c2)[C@H](O)[C@@H](O)[C@@H]1O` [compound 8, 1-(β-D-Glucopyranosyl)-4-phenyl-1H-imidazole] returned a melting point of 273 to 274 °C. For the same molecule, in data set [1] (RMGPb), the Inhibition result is listed as “N.I”. Further, in data set [1], the “inhibition of RMGPb (in words)” value was “non-inhibitory”.

`O=C(Nc1ccccc1)[C@@H]1O[C@H](CO)[C@@H](O)[C@H](O)[C@H]1O` [compound 20, N-phenyl-2,6-anhydro-D-glycero-D-gulo-heptonamide, reference compound]: the “average ratio of inhibitory efficiency of Ib to its reversed counterpart 20” value in data set [1] (RMGPb, average of the 38–67 ratio) is ~ 53. Further, the “ratio of inhibitory efficiency of Ib to its reversed counterpart 20” value in data set [1] (RMGPb, from literature Ki values of Ib and 20) was 38–67. Moreover, the Ki in data set [2] (RMGPb) was 5400 µM.
